The text below walks through data of publication PMC5218480 (PLoS ONE, 2017).

This test relates to MV-4-11 cells. The test can be described thus: Gene expression microarray analysis (Affymetrix PrimeView) and GSEA. Format: cell-based, human. Details: RFU PODN (11730768_x_at) / Fold change /veh PODN (11730768_x_at) / RFU LINC00158 (11744669_a_at) / Fold change /veh LINC00158 (11744669_a_at) / RFU DUSP10 (11751237_a_at) / Fold change /veh DUSP10 (11751237_a_at) / RFU ID3 (11757404_x_at) / Fold change /veh ID3 (11757404_x_at) / RFU PLEKHG5 (11737974_s_at) / Fold change /veh PLEKHG5 (11737974_s_at) / RFU LRRC4B (11730491_at) / Fold change /veh LRRC4B (11730491_at) / RFU GIMAP4 (11747438_a_at) / Fold change /veh GIMAP4 (11747438_a_at) / RFU KRT8 (11758183_x_at) / Fold change /veh KRT8 (11758183_x_at) / RFU CNN1 (11734310_a_at) / Fold change /veh CNN1 (11734310_a_at) / RFU VPS37D (11726825_at) / Fold change /veh VPS37D (11726825_at) / RFU C10orf10 (11716522_x_at) / Fold change /veh C10orf10 (11716522_x_at) / RFU KIR2DL2 /// KIR2DL4 /// KIR2DL5A /// KIR2DL5B /// KIR2DS1 /// KIR2DS2 /// KIR2DS3 /// KIR2DS4 /// KIR3DL3 /// KIR3DL3 /// KIR3DS1 (11738374_at) / Fold change /veh KIR2DL2 /// KIR2DL4 /// KIR2DL5A /// KIR2DL5B /// KIR2DS1 /// KIR2DS2 /// KIR2DS3 /// KIR2DS4 /// KIR3DL3 /// KIR3DL3 /// KIR3DS1 (11738374_at) / RFU C1QL1 (11718748_at) / Fold change /veh C1QL1 (11718748_at) / RFU TMPRSS4 (11747572_a_at) / Fold change /veh TMPRSS4 (11747572_a_at) / RFU HAMP (11756126_x_at) / Fold change /veh HAMP (11756126_x_at) / RFU RNFT2 (11725882_a_at) / Fold change /veh RNFT2 (11725882_a_at) / RFU NR4A2 (11747474_a_at) / Fold change /veh NR4A2 (11747474_a_at) / RFU ABCC12 (11746883_a_at) / Fold change /veh ABCC12 (11746883_a_at) / RFU TMEM136 (11760407_x_at) / Fold change /veh TMEM136 (11760407_x_at) / RFU CLDN22 /// WWC2 (11732394_at) / Fold change /veh CLDN22 /// WWC2 (11732394_at) / RFU HLA-DPB1 (11760878_x_at) / Fold change /veh HLA-DPB1 (11760878_x_at) / RFU SPINT1 (11716480_a_at) / Fold change /veh SPINT1 (11716480_a_at) / RFU GAP43 (11754022_s_at) / Fold change /veh GAP43 (11754022_s_at) / RFU A4GNT (11735810_at) / Fold change /veh A4GNT (11735810_at) / RFU PRB3 (11715151_x_at) / Fold change /veh PRB3 (11715151_x_at) / RFU TUBB4B (11761932_at) / Fold change /veh TUBB4B (11761932_at) / RFU CAPN14 (11732068_a_at) / Fold change /veh CAPN14 (11732068_a_at) / RFU TMCC2 (11721928_a_at) / Fold change /veh TMCC2 (11721928_a_at) / RFU IRGQ (11745062_a_at) / Fold change /veh IRGQ (11745062_a_at) / RFU FAM174B (11720279_a_at) / Fold change /veh FAM174B (11720279_a_at) / RFU TMPRSS4 (11748680_a_at) / Fold change /veh TMPRSS4 (11748680_a_at) / RFU FAM212B (11763350_a_at) / Fold change /veh FAM212B (11763350_a_at) / RFU PLEKHG5 (11743358_a_at) / Fold change /veh PLEKHG5 (11743358_a_at) / RFU ZSCAN30 (11745921_a_at) / Fold change /veh ZSCAN30 (11745921_a_at) / RFU CMKLR1 (11741424_a_at) / Fold change /veh CMKLR1 (11741424_a_at) / RFU LOC101060620 /// MAPK8IP1 (11723275_at) / Fold change /veh LOC101060620 /// MAPK8IP1 (11723275_at) / RFU SPTSSB (11747773_x_at) / Fold change /veh SPTSSB (11747773_x_at) / RFU PRSS12 (11739890_at) / Fold change /veh PRSS12 (11739890_at) / RFU BIN1 (11741810_x_at) / Fold change /veh BIN1 (11741810_x_at) / RFU WNT11 (11732464_a_at) / Fold change /veh WNT11 (11732464_a_at) / RFU C10orf10 (11716521_a_at) / Fold change /veh C10orf10 (11716521_a_at) / RFU C5orf56 (11738089_at) / Fold change /veh C5orf56 (11738089_at) / RFU CYB561 (11721691_x_at) / Fold change /veh CYB561 (11721691_x_at) / RFU ANKRD19P (11752326_a_at) / Fold change /veh ANKRD19P (11752326_a_at) / RFU OR2T12 /// OR2T33 /// OR2T8 (11738714_s_at) / Fold change /veh OR2T12 /// OR2T33 /// OR2T8 (11738714_s_at) / RFU VCAN (11748164_a_at) / Fold change /veh VCAN (11748164_a_at) / RFU JSRP1 (11732532_at) / Fold change /veh JSRP1 (11732532_at) / RFU KRTAP10-11 (11738290_x_at) / Fold change /veh KRTAP10-11 (11738290_x_at) / RFU MYO3A (11730013_a_at) / Fold change /veh MYO3A (11730013_a_at) / RFU EBF3 (11725865_a_at) / Fold change /veh EBF3 (11725865_a_at) / RFU CAMK2N1 (11719241_x_at) / Fold change /veh CAMK2N1 (11719241_x_at) / RFU C5orf56 (11738088_a_at) / Fold change /veh C5orf56 (11738088_a_at) / RFU OLFML3 (11715873_a_at) / Fold change /veh OLFML3 (11715873_a_at) / RFU LOC100653217 /// NTM (11731650_a_at) / Fold change /veh LOC100653217 /// NTM (11731650_a_at) / RFU MAPK11 (11762145_a_at) / Fold change /veh MAPK11 (11762145_a_at) / RFU FIZ1 (11724087_x_at) / Fold change /veh FIZ1 (11724087_x_at) / RFU OASL (11726364_x_at) / Fold change /veh OASL (11726364_x_at) / RFU SOX15 (11748057_x_at) / Fold change /veh SOX15 (11748057_x_at) / RFU CD79A (11719716_a_at) / Fold change /veh CD79A (11719716_a_at) / RFU HIST1H1D (11736915_at) / Fold change /veh HIST1H1D (11736915_at) / RFU CASKIN2 (11723855_a_at) / Fold change /veh CASKIN2 (11723855_a_at) / RFU LOC730098 (11760151_x_at) / Fold change /veh LOC730098 (11760151_x_at) / RFU OR4N2 (11742367_at) / Fold change /veh OR4N2 (11742367_at) / RFU PRRT2 (11749266_a_at) / Fold change /veh PRRT2 (11749266_a_at) / RFU SNX32 (11753110_a_at) / Fold change /veh SNX32 (11753110_a_at) / RFU CDHR5 (11726645_a_at) / Fold change /veh CDHR5 (11726645_a_at) / RFU RCAN1 (11760418_a_at) / Fold change /veh RCAN1 (11760418_a_at) / RFU FAM167A (11723789_a_at) / Fold change /veh FAM167A (11723789_a_at) / RFU FAM26E (11764081_at) / Fold change /veh FAM26E (11764081_at) / RFU ISYNA1 (11749810_s_at) / Fold change /veh ISYNA1 (11749810_s_at) / RFU ACY1 (11761880_at) / Fold change /veh ACY1 (11761880_at) / RFU 11764098_at / Fold change /veh 11764098_at / RFU SAMD14 (11745864_x_at) / Fold change /veh SAMD14 (11745864_x_at) / RFU NPB (11741838_a_at) / Fold change /veh NPB (11741838_a_at) / RFU TMPRSS6 (11731388_a_at) / Fold change /veh TMPRSS6 (11731388_a_at) / RFU KRTAP10-2 (11738614_at) / Fold change /veh KRTAP10-2 (11738614_at) / RFU ARHGAP8 /// PRR5-ARHGAP8 (11727945_x_at) / Fold change /veh ARHGAP8 /// PRR5-ARHGAP8 (11727945_x_at) / RFU KRTAP5-7 /// NADSYN1 (11734609_at) / Fold change /veh KRTAP5-7 /// NADSYN1 (11734609_at) / RFU RASL12 (11751679_a_at) / Fold change /veh RASL12 (11751679_a_at) / RFU CDKN2B (11736163_a_at) / Fold change /veh CDKN2B (11736163_a_at) / RFU PRF1 (11729649_at) / Fold change /veh PRF1 (11729649_at) / RFU, ZNF638 /// ZNF638-IT1 / Fold change vs veh, ZNF638 /// ZNF638-IT1 / RFU, PANK3 / Fold change vs veh, PANK3 / RFU, SH3YL1 / Fold change vs veh, SH3YL1 / RFU, ZEB2 / Fold change vs veh, ZEB2 / RFU, NRIP1 / Fold change vs veh, NRIP1 / RFU, PTTG1IP / Fold change vs veh, PTTG1IP / RFU, CAPN2 / Fold change vs veh, CAPN2 / RFU, MED14 / Fold change vs veh, MED14 / RFU, SNORA58 / Fold change vs veh, SNORA58 / RFU, C1orf63 / Fold change vs veh, C1orf63 / RFU, LRRFIP1 / Fold change vs veh, LRRFIP1 / RFU, NDUFAF7 / Fold change vs veh, NDUFAF7 / RFU, SLC12A2 / Fold change vs veh, SLC12A2 / RFU, IBTK / Fold change vs veh, IBTK / RFU, ESF1 / Fold change vs veh, ESF1 / Fold change vs veh, TMEM50B / RFU, TAOK1 / Fold change vs veh, TAOK1 / RFU, ACBD3 / Fold change vs veh, ACBD3 / RFU, TMA16 / Fold change vs veh, TMA16 / RFU, RWDD3 / Fold change vs veh, RWDD3 / RFU, BCAT1 / Fold change vs veh, BCAT1 / RFU, EDEM3 / Fold change vs veh, EDEM3 / RFU, TMEM33 / Fold change vs veh, TMEM33 / RFU, WDR75 / Fold change vs veh, WDR75 / RFU, AHCTF1 / Fold change vs veh, AHCTF1 / RFU, TFRC / Fold change vs veh, TFRC / RFU, ZDHHC17 / Fold change vs veh, ZDHHC17 / RFU, NOM1 / Fold change vs veh, NOM1 / RFU, ARL8B / Fold change vs veh, ARL8B / RFU, ZBTB11 / Fold change vs veh, ZBTB11 / RFU, TAMM41 / Fold change vs veh, TAMM41 / RFU, KIAA1704 /// LOC100996395 / Fold change vs veh, KIAA1704 /// LOC100996395 / RFU, ING1 / Fold change vs veh, ING1 / RFU, TRMT61B / Fold change vs veh, TRMT61B / RFU, FUBP3 / Fold change vs veh, FUBP3 / RFU, TP53 / Fold change vs veh, TP53 / RFU, TNKS2 / Fold change vs veh, TNKS2 / RFU, ZFP14 / Fold change vs veh, ZFP14 / RFU, ACTR2 / Fold change vs veh, ACTR2 / RFU, PPP3R1 / Fold change vs veh, PPP3R1 / RFU, PIK3R1 / Fold change vs veh, PIK3R1 / RFU, HNRNPA1 / Fold change vs veh, HNRNPA1 / RFU, RNF170 / Fold change vs veh, RNF170 / RFU, ZNF28 / Fold change vs veh, ZNF28 / RFU, RNGTT / Fold change vs veh, RNGTT / RFU, OGT / Fold change vs veh, OGT / RFU, BRD1 / Fold change vs veh, BRD1 / RFU, MARS / Fold change vs veh, MARS / RFU, ZNF655 / Fold change vs veh, ZNF655 / RFU, FAHD1 / Fold change vs veh, FAHD1 / RFU, BDP1 / Fold change vs veh, BDP1 / RFU, LRRCC1 / Fold change vs veh, LRRCC1 / RFU, ARID1A / Fold change vs veh, ARID1A / RFU, ZNF146 / Fold change vs veh, ZNF146 / RFU, ZNF330 / Fold change vs veh, ZNF330 / RFU, GPN3 / Fold change vs veh, GPN3 / RFU, C9orf123 / Fold change vs veh, C9orf123 / RFU, N4BP2L2 / Fold change vs veh, N4BP2L2 / RFU, ARFIP1 / Fold change vs veh, ARFIP1 / RFU, FAM179B / Fold change vs veh, FAM179B / RFU, BCL10 / Fold change vs veh, BCL10 / RFU, UHRF1BP1L / Fold change vs veh, UHRF1BP1L / RFU, BET1 / Fold change vs veh, BET1 / RFU, CNOT2 / Fold change vs veh, CNOT2 / RFU, ZNF268 / Fold change vs veh, ZNF268 / Fold change vs veh, ZNF507 / RFU, DGCR2 / Fold change vs veh, DGCR2 / RFU, WDSUB1 / Fold change vs veh, WDSUB1 / Fold change vs veh, HSP90B1 /// MIR3652 / RFU, ADSS / Fold change vs veh, ADSS / RFU, GK / Fold change vs veh, GK / RFU, ZNF148 / Fold change vs veh, ZNF148 / RFU, TAF9 / Fold change vs veh, TAF9 / RFU, SLC1A5 / Fold change vs veh, SLC1A5 / RFU, SLMO2 / Fold change vs veh, SLMO2 / RFU, ABCC4 / Fold change vs veh, ABCC4 / RFU, LOC101060439 /// RAP1B / Fold change vs veh, LOC101060439 /// RAP1B / RFU, RFX7 / Fold change vs veh, RFX7 / RFU, GTPBP10 / Fold change vs veh, GTPBP10 / RFU, CNEP1R1 / Fold change vs veh, CNEP1R1 / RFU, BIVM-ERCC5 /// ERCC5 / Fold change vs veh, BIVM-ERCC5 /// ERCC5 / RFU, ILF3 / Fold change vs veh, ILF3 / RFU 11762660_at / Fold change /veh 11762660_at / RFU VCAN (11757783_s_at) / Fold change /veh VCAN (11757783_s_at) / RFU DDX43 (11728927_at) / Fold change /veh DDX43 (11728927_at) / RFU KRT8 (11758188_x_at) / Fold change /veh KRT8 (11758188_x_at) / RFU NKD1 (11759106_at) / Fold change /veh NKD1 (11759106_at) / RFU SRD5A1 (11742802_a_at) / Fold change /veh SRD5A1 (11742802_a_at) / RFU TPSAB1 /// TPSB2 (11721975_s_at) / Fold change /veh TPSAB1 /// TPSB2 (11721975_s_at) / RFU GSTM3 (11746129_a_at) / Fold change /veh GSTM3 (11746129_a_at) / RFU IL23R (11737362_x_at) / Fold change /veh IL23R (11737362_x_at) / RFU TMEM51 (11727254_a_at) / Fold change /veh TMEM51 (11727254_a_at) / RFU PIWIL2 (11732686_x_at) / Fold change /veh PIWIL2 (11732686_x_at) / RFU ORM1 (11744905_x_at) / Fold change /veh ORM1 (11744905_x_at) / RFU CCDC152 (11743942_at) / Fold change /veh CCDC152 (11743942_at) / RFU ECM1 (11717891_a_at) / Fold change /veh ECM1 (11717891_a_at) / RFU IL23R (11748794_a_at) / Fold change /veh IL23R (11748794_a_at) / RFU TNFAIP8L3 (11732012_x_at) / Fold change /veh TNFAIP8L3 (11732012_x_at) / RFU MBOAT4 (11741988_at) / Fold change /veh MBOAT4 (11741988_at) / RFU 11764193_at / Fold change /veh 11764193_at / RFU TMEM53 (11763286_at) / Fold change /veh TMEM53 (11763286_at) / RFU MAGEB2 (11727129_at) / Fold change /veh MAGEB2 (11727129_at) / RFU TMEM200A (11744735_a_at) / Fold change /veh TMEM200A (11744735_a_at) / RFU CCDC152 (11751479_a_at) / Fold change /veh CCDC152 (11751479_a_at) / RFU FAM211A (11726209_a_at) / Fold change /veh FAM211A (11726209_a_at) / RFU RGS16 (11746705_a_at) / Fold change /veh RGS16 (11746705_a_at) / RFU VCAN (11755009_s_at) / Fold change /veh VCAN (11755009_s_at) / RFU RHOB (11743442_s_at) / Fold change /veh RHOB (11743442_s_at) / RFU RGS16 (11720943_a_at) / Fold change /veh RGS16 (11720943_a_at) / RFU RGS16 (11720944_at) / Fold change /veh RGS16 (11720944_at) / RFU, VPS4B / Fold change vs veh, VPS4B / RFU, CREB1 / Fold change vs veh, CREB1 / RFU, DNAJC13 / Fold change vs veh, DNAJC13 / RFU, GNAQ / Fold change vs veh, GNAQ / RFU, CDK5R1 / Fold change vs veh, CDK5R1 / RFU, ZRANB3 / Fold change vs veh, ZRANB3 / RFU, CUL4A / Fold change vs veh, CUL4A / RFU, CCNY / Fold change vs veh, CCNY / RFU, UFL1 / Fold change vs veh, UFL1 / RFU, COG3 / Fold change vs veh, COG3 / RFU, DIAPH2 / Fold change vs veh, DIAPH2 / RFU, SKA2 / Fold change vs veh, SKA2 / RFU, AFF3 / Fold change vs veh, AFF3 / RFU, LMF1 / Fold change vs veh, LMF1 / RFU, IPO11 / Fold change vs veh, IPO11 / RFU, DFFB / Fold change vs veh, DFFB / RFU, FOXP1 / Fold change vs veh, FOXP1 / RFU, CARD8 / Fold change vs veh, CARD8 / RFU, STRN3 / Fold change vs veh, STRN3 / RFU, ADK / Fold change vs veh, ADK / RFU, RASSF2 / Fold change vs veh, RASSF2 / RFU, WIPF1 / Fold change vs veh, WIPF1 / RFU, LARP1B / Fold change vs veh, LARP1B / RFU, RASA1 / Fold change vs veh, RASA1 / RFU, RB1 / Fold change vs veh, RB1 / RFU, PPFIA1 / Fold change vs veh, PPFIA1 / RFU, MAT2A / Fold change vs veh, MAT2A / RFU, CCT5 / Fold change vs veh, CCT5 / RFU, WDR92 / Fold change vs veh, WDR92 / RFU, CUX1 / Fold change vs veh, CUX1 / RFU, TTC7A / Fold change vs veh, TTC7A / RFU, TMEM135 / Fold change vs veh, TMEM135 / RFU, DEPTOR / Fold change vs veh, DEPTOR / RFU, CPM / Fold change vs veh, CPM / RFU, DNAJB6 / Fold change vs veh, DNAJB6 / RFU, CACNA2D3 / Fold change vs veh, CACNA2D3 / RFU, DTX4 / Fold change vs veh, DTX4 / RFU, TFCP2 / Fold change vs veh, TFCP2 / RFU, GMCL1 /// GMCL1P1 / Fold change vs veh, GMCL1 /// GMCL1P1 / RFU, AEBP2 / Fold change vs veh, AEBP2 / RFU, SNHG1 /// SNORD22 /// SNORD25 /// SNORD26 /// SNORD27 /// SNORD28 /// SNORD29 /// SNORD31 / Fold change vs veh, SNHG1 /// SNORD22 /// SNORD25 /// SNORD26 /// SNORD27 /// SNORD28 /// SNORD29 /// SNORD31 / Fold change (Aza/veh), C12orf56 (ProbeSet 11735607_a_at) / Fold change (ACY-1035/veh), C12orf56 (ProbeSet 11735607_a_at) / Fold change (Aza/veh), FGFR1OP (ProbeSet 11751329_s_at) / Fold change (ACY-1035/veh), FGFR1OP (ProbeSet 11751329_s_at) / Fold change (Aza/veh), VPS36 (ProbeSet 11739960_a_at) / Fold change (ACY-1035/veh), VPS36 (ProbeSet 11739960_a_at) / RFU SYPL1 (11715823_x_at) / Fold change /veh SYPL1 (11715823_x_at) / RFU IGFBP7 (11715501_s_at) / Fold change /veh IGFBP7 (11715501_s_at) / RFU REEP3 (11722064_at) / Fold change /veh REEP3 (11722064_at) / RFU IGLL1 (11728026_x_at) / Fold change /veh IGLL1 (11728026_x_at): dose or concentration left out as unconfirmed. Particulars: ProbeSet 11721559_s_at; LIST B.

The structures appear in SMILES notation.

Turning to `Nc1ncn([C@@H]2O[C@H](CO)[C@@H](O)[C@H]2O)c(=O)n1` [azacitidine], the “Fold change vs veh, ZNF638 /// ZNF638-IT1” value was determined as 0.91.
